The target in assay [1] is Recombinant SHP-1 protein (Homo sapiens, UniProt P29350). In words: SHP-1 phosphatase activity assay (RediPlate 96 EnzChek Tyrosine Phosphatase Assay kit). The format is biochemical. Conditions: SC derivatives at 1 μM for 2 hr; recombinant SHP-1 25 ng; control DMSO = 100; mean±SD (N=3). In outline: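 Recombinant human SHP-1 (25 ng) was incubated for 2 h with compound at 1 μM, using a DMSO solvent control. Tyrosine phosphatase activity was then measured with the EnzChek kit by absorbance at 465 nm. Values are mean±SD, N=3.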

In assay [2] the test system is PLC5 cells (a hepatocellular carcinoma cell line). In words: Cytotoxicity, MTT cell viability assay. The format is cell-based. Conditions: 72 h exposure. Here is the method:
PLC5 cells (a hepatocellular carcinoma cell line) were seeded at 5×10^3 cells per well in 96-well plates. Then, cells were exposed to SC derivatives at the indicated doses for 72 h. After that, cells were incubated with MTT (1 mg/ml) (Sigma-Aldrich, St. Louis, Mo.) for 2 h at 37° C. Cell viability was then assessed by measuring the absorbance at 570 nm using a microplate reader.
On the technique in general: Tetrazolium assays rely on reduction of a dye to a coloured formazan, in cell work by metabolically active cells.

Bounds are passed on as bounds.

Sequence of Recombinant SHP-1 protein (P29350 whole entry): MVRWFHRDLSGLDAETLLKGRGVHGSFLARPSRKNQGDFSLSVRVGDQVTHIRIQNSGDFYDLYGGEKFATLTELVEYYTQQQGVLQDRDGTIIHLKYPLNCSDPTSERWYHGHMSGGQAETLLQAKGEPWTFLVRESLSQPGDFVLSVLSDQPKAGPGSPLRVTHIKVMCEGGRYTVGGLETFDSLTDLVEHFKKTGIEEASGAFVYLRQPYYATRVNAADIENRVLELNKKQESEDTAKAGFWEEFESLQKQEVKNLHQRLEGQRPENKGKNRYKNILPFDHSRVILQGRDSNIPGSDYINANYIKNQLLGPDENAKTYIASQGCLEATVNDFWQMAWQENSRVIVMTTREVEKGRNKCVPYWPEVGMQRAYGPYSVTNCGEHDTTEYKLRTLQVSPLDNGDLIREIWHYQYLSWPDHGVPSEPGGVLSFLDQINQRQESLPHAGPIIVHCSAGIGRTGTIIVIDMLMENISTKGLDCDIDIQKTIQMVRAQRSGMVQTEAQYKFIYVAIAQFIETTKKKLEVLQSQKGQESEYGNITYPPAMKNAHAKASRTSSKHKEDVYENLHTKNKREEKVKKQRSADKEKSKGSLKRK

As for `Cc1cc(Oc2cc(NC(=O)Nc3ccc(Cl)c(C(F)(F)F)c3)ccc2Cl)ccc1C#N` [compound 175, 1-(4-chloro-3-(4-cyano-3-methylphenoxy)phenyl)-3-(4-chloro-3-(trifluoromethyl)phenyl)urea], in assay [1], the “SHP-1 Activity (% of control)” value is 233.37 ± 36.5 % of control. Besides, in assay [2], the IC50 (usually the concentration that inhibits the measured activity by half) came to 1200 nM.
For `Cc1cc(Oc2cc(NC(=O)Nc3cc(C(F)(F)F)cc(C(F)(F)F)c3)ccc2Cl)ccc1C#N` [compound 176, 1-(3,5-bis(trifluoromethyl)phenyl)-3-(4-chloro-3-(4-cyano-3-methylphenoxy)phenyl)urea] the same measures were 112.57 ± 3.69 % of control and 650 nM.
For the molecule `Cc1cc(Oc2cc(NC(=O)Nc3ccc(F)c(C(F)(F)F)c3)ccc2Cl)ccc1C#N` [compound 177, 1-(4-chloro-3-(4-cyano-3-methylphenoxy)phenyl)-3-(4-fluoro-3-(trifluoromethyl)phenyl)urea], the “SHP-1 Activity (% of control)” value in assay [1] is reported as 103.52 ± 1.13 % of control. This molecule also returned an IC50 in assay [2] greater than 10000 nM.
Taken in the same sequence, the figures for `N#Cc1ccc(Oc2cc(NC(=O)Nc3cccc(C(F)(F)F)c3)ccc2Cl)cc1Cl` [compound 178, 1-(4-chloro-3-(3-chloro-4-cyanophenoxy)phenyl)-3-(3-(trifluoromethyl)phenyl)urea] were 106.69 ± 9.47 % of control and 1490 nM.
For `N#Cc1ccc(Oc2cc(NC(=O)Nc3ccc(Cl)c(C(F)(F)F)c3)ccc2Cl)cc1Cl` [compound 179, 1-(4-chloro-3-(3-chloro-4-cyanophenoxy)phenyl)-3-(4-chloro-3-(trifluoromethyl)phenyl)urea] the same measures were 99.11 ± 7.09 % of control and 950 nM.
For `N#Cc1ccc(Oc2cc(NC(=O)Nc3cc(C(F)(F)F)cc(C(F)(F)F)c3)ccc2Cl)cc1Cl` [compound 180, 1-(3,5-bis(trifluoromethyl)phenyl)-3-(4-chloro-3-(3-chloro-4-cyanophenoxy)phenyl)urea] the same measures were 105.52 ± 0.87 % of control and 780 nM.
As to `N#Cc1ccc(Oc2cc(NC(=O)Nc3ccc(F)c(C(F)(F)F)c3)ccc2Cl)cc1Cl` [compound 181, 1-(4-chloro-3-(3-chloro-4-cyanophenoxy)phenyl)-3-(4-fluoro-3-(trifluoromethyl)phenyl)urea], the “SHP-1 Activity (% of control)” value in assay [1] is on record as 106.88 ± 3.58 % of control. In assay [2], this molecule displayed an IC50 of 930 nM.
Taken in the same sequence, the figures for `N#Cc1ccc(Oc2cc(NC(=O)Nc3cc(C(F)(F)F)cc(C(F)(F)F)c3)ccc2Cl)cn1` [compound 182, 1-(3,5-bis(trifluoromethyl)phenyl)-3-(4-chloro-3-((6-cyanopyridin-3-yl)oxy)phenyl)urea] were 110.50 ± 6.08 % of control and 560 nM.
Taken in the same sequence, the figures for `N#Cc1ccc(Oc2ccc(F)c(NC(=O)Nc3cc(C(F)(F)F)cc(C(F)(F)F)c3)c2)cn1` [compound 183, 1-(3,5-bis(trifluoromethyl)phenyl)-3-(5-((6-cyanopyridin-3-yl)oxy)-2-fluorophenyl)urea] were 353.11 ± 30.81 % of control and 530 nM.

Values taken from patent US10745346B2, “Agonists of protein tyrosine phosphatase SHP-1” (priority 2015, dated 2020).
